# Experimental data from patent publication US20260070903A1, “NOVEL PYRIDO[3,4-D]PYRIMIDIN-8-ONE DERIVATIVE HAVING PROTEIN KINASE INHIBITORY ACTIVITY, AND PHARMACEUTICAL COMPOSITION FOR PREVENTING, ALLEVIATING, OR TREATING CANCER, COMPRISING SAME” (KOREA INSTITUTE OF SCIENCE AND TECHNOLOGY, priority 2019, published 2026).
# Key:
# RET = RET (Homo sapiens, UniProt P07949); assay: Kinase panel biochemical assay, RET; conditions: single concentration of 1 μM, read-out: percent inhibition of kinase
# Experimental: (§1) As a test compound, Compound No. 55 was used. The percent inhibition of each kinase when treated with the test compound at a single concentration of 1 μM was measured, and the residual enzyme activity values (%) of the kinases were calculated. Kinases whose calculated residual enzyme activity values (%) was 30% or less (i.e., kinases inhibited by 70% or more) are as follows: […]
# OCI-AML3 (N-Ras Q61L) = assay: Proliferation inhibitory activity, OCI-AML3; format: cell-based, human; conditions: Homo sapiens, OCI-AML-3
# Experimental: The inhibitory activities of the compounds of the present disclosure against the proliferation of the mt-NRAS (G12D) Ba/F3 and OCI-AML3 (mt-NRAS) cell lines were measured and the GI50 values thereof were calculated.
# PEAK1 = PEAK1 (Homo sapiens, UniProt Q9H792); assay: Kinase panel biochemical assay, PEAK1; conditions: single concentration of 1 μM, read-out: percent inhibition of kinase
# Experimental: as §1
# ZAK = ZAK (Homo sapiens, UniProt Q9NYL2); assay: Kinase panel biochemical assay, ZAK; conditions: single concentration of 1 μM, read-out: percent inhibition of kinase
# Chain of ZAK (Q9NYL2 whole entry): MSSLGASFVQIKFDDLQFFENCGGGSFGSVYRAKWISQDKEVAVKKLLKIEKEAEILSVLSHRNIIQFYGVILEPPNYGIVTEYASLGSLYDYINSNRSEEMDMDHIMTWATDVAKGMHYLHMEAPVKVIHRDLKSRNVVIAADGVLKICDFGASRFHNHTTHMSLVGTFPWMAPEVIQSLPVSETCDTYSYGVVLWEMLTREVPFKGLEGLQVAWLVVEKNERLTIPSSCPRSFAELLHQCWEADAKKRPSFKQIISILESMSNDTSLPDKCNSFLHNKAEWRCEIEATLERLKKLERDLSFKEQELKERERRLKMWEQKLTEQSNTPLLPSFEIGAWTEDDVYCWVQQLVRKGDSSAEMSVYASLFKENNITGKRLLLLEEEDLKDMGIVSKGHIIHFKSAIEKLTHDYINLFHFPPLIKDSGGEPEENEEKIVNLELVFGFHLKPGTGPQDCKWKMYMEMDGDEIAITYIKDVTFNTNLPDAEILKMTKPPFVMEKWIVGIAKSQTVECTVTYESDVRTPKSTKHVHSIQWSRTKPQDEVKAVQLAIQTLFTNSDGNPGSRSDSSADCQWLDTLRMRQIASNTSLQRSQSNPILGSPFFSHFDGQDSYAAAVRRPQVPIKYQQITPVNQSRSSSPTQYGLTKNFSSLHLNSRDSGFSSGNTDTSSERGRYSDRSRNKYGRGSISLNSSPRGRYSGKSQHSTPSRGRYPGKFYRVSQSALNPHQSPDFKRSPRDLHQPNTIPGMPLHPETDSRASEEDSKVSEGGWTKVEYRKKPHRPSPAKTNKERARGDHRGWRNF
# Experimental: as §1
# FLT1 = FLT1 (Homo sapiens, UniProt P17948); assay: Kinase panel biochemical assay, FLT1; conditions: single concentration of 1 μM, read-out: percent inhibition of kinase
# Experimental: as §1
# SRMS = SRMS (Homo sapiens, UniProt Q9H3Y6); assay: Kinase panel biochemical assay, SRMS; conditions: single concentration of 1 μM, read-out: percent inhibition of kinase
# Chain of SRMS (Q9H3Y6 whole entry): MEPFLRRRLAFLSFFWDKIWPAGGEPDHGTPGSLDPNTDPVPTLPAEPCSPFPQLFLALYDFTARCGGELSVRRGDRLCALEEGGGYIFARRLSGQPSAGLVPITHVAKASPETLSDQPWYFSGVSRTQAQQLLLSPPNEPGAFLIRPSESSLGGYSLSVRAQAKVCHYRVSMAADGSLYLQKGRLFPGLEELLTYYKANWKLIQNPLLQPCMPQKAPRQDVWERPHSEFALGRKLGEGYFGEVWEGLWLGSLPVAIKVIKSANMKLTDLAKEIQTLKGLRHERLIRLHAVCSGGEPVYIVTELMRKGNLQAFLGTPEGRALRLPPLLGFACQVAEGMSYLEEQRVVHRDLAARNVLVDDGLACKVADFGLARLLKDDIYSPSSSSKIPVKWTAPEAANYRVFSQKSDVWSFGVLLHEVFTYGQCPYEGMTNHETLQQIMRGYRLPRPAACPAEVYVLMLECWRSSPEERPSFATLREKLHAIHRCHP
# Experimental: as §1
# TXK = TXK (Homo sapiens, UniProt P42681); assay: Kinase panel biochemical assay, TXK; conditions: single concentration of 1 μM, read-out: percent inhibition of kinase
# Chain of TXK (P42681 whole entry): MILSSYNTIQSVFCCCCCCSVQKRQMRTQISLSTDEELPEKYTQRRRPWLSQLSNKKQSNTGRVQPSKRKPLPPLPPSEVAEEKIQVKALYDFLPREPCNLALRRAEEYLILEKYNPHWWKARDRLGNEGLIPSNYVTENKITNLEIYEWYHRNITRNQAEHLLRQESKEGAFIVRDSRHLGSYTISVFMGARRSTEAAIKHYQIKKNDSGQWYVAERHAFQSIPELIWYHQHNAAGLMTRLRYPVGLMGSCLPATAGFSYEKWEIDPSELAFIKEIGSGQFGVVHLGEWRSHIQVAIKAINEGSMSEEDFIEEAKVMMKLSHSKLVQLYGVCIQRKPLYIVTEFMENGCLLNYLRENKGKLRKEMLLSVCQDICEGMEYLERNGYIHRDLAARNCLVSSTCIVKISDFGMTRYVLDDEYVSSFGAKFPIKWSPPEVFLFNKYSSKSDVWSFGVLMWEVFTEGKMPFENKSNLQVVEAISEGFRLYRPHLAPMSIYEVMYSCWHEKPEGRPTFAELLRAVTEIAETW
# Experimental: as §1
# GCK [1] = molecular target: T1, GCK (Homo sapiens, UniProt Q12851); assay: Kinase panel biochemical assay, GCK; conditions: single concentration of 1 μM, read-out: percent inhibition of kinase
# T1 sequence (Q12851 1-820): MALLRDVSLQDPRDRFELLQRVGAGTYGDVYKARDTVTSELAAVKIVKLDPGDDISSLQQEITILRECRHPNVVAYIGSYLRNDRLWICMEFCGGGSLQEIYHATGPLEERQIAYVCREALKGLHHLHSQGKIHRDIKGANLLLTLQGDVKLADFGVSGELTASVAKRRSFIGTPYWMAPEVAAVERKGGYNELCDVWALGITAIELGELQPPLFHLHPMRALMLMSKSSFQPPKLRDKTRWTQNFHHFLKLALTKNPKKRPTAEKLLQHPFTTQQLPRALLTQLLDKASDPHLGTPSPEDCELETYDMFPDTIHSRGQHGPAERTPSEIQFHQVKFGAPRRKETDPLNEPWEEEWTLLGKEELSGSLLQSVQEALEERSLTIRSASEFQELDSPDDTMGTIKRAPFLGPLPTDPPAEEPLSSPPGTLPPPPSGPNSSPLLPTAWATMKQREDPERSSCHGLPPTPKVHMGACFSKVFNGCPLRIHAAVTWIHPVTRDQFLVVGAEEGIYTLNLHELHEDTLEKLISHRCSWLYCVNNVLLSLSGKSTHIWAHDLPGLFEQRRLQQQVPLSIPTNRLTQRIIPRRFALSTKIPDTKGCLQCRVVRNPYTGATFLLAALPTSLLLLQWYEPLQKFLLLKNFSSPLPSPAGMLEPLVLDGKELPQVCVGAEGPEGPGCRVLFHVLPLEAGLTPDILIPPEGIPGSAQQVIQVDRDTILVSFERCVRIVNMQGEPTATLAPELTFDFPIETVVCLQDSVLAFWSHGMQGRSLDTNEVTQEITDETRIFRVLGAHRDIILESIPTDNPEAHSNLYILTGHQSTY
# Experimental: as §1
# EPHA8 = EPHA8 (Homo sapiens, UniProt P29322); assay: Kinase panel biochemical assay, EPHA8; conditions: single concentration of 1 μM, read-out: percent inhibition of kinase
# Experimental: as §1
# EPHA3 = EPHA3 (Homo sapiens, UniProt P29320); assay: Kinase panel biochemical assay, EPHA3; conditions: single concentration of 1 μM, read-out: percent inhibition of kinase
# Experimental: as §1
# EPHA5 = EPHA5 (Homo sapiens, UniProt P54756); assay: Kinase panel biochemical assay, EPHA5; conditions: single concentration of 1 μM, read-out: percent inhibition of kinase
# Experimental: as §1
# FRK = FRK (Homo sapiens, UniProt P42685); assay: Kinase panel biochemical assay, FRK; conditions: single concentration of 1 μM, read-out: percent inhibition of kinase
# Experimental: as §1
# JAK2 = JAK2 (Homo sapiens, UniProt O60674); assay: Kinase panel biochemical assay, JAK2; conditions: single concentration of 1 μM, read-out: percent inhibition of kinase
# Experimental: as §1
# EPHB2 = EPHB2 (Homo sapiens, UniProt P29323); assay: Kinase panel biochemical assay, EPHB2; conditions: single concentration of 1 μM, read-out: percent inhibition of kinase
# Experimental: as §1
# CSK = CSK (Homo sapiens, UniProt P41240); assay: Kinase panel biochemical assay, CSK; conditions: single concentration of 1 μM, read-out: percent inhibition of kinase
# Experimental: as §1
# ABL2 = ABL2 (Homo sapiens, UniProt P42684); assay: Kinase panel biochemical assay, ABL2; conditions: single concentration of 1 μM, read-out: percent inhibition of kinase
# Experimental: as §1
# PDGFRa = PDGFRa (Homo sapiens, UniProt P16234); assay: Kinase panel biochemical assay, PDGFRa; conditions: single concentration of 1 μM, read-out: percent inhibition of kinase
# Experimental: as §1
# EPHB4 = EPHB4 (Homo sapiens, UniProt P54760); assay: Kinase panel biochemical assay, EPHB4; conditions: single concentration of 1 μM, read-out: percent inhibition of kinase
# Experimental: as §1
# DDR1 = DDR1 (Homo sapiens, UniProt Q08345); assay: Kinase panel biochemical assay, DDR1; conditions: single concentration of 1 μM, read-out: percent inhibition of kinase
# Chain of DDR1 (Q08345 19-913): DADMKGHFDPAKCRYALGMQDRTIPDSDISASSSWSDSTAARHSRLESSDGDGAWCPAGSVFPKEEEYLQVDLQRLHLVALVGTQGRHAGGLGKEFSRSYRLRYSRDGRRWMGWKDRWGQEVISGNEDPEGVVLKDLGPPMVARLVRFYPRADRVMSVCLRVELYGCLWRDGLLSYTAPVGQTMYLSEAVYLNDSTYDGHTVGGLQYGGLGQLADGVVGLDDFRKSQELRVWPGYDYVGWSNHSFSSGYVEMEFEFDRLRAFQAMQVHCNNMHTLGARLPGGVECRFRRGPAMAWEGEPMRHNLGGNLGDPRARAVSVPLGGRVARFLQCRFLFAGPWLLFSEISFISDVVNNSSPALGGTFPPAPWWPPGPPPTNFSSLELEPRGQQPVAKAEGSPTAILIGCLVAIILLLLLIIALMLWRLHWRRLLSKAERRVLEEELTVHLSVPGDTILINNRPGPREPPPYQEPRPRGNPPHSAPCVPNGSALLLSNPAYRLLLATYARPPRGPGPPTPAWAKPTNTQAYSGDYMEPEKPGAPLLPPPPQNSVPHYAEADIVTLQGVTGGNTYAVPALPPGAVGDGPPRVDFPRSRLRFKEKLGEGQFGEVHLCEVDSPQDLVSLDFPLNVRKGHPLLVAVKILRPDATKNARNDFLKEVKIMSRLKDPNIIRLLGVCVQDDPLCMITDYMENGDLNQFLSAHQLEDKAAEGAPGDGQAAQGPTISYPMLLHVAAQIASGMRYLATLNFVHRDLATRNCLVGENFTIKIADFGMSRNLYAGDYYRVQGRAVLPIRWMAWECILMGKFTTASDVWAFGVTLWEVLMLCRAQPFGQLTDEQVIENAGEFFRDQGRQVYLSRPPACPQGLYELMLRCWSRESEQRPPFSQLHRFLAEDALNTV
# Experimental: as §1
# BMX = BMX (Homo sapiens, UniProt P51813); assay: Kinase panel biochemical assay, BMX; conditions: single concentration of 1 μM, read-out: percent inhibition of kinase
# Experimental: as §1
# EPHA6 = EPHA6 (Homo sapiens, UniProt Q9UF33); assay: Kinase panel biochemical assay, EPHA6; conditions: single concentration of 1 μM, read-out: percent inhibition of kinase
# Experimental: as §1
# ACK1 = ACK1 (Homo sapiens, UniProt Q07912); assay: Inhibitory activity against ACK1 kinase (IC50); format: biochemical
# Experimental: (§2) The inhibitory activities of the compounds of the present disclosure against two kinases, GCK and ACK1, were measured, and the IC50 values thereof were calculated.
# EPHA2 = EPHA2 (Homo sapiens, UniProt P29317); assay: Kinase panel biochemical assay, EPHA2; conditions: single concentration of 1 μM, read-out: percent inhibition of kinase
# Experimental: as §1
# EPHA4 = EPHA4 (Homo sapiens, UniProt P54764); assay: Kinase panel biochemical assay, EPHA4; conditions: single concentration of 1 μM, read-out: percent inhibition of kinase
# Chain of EPHA4 (P54764 20-986): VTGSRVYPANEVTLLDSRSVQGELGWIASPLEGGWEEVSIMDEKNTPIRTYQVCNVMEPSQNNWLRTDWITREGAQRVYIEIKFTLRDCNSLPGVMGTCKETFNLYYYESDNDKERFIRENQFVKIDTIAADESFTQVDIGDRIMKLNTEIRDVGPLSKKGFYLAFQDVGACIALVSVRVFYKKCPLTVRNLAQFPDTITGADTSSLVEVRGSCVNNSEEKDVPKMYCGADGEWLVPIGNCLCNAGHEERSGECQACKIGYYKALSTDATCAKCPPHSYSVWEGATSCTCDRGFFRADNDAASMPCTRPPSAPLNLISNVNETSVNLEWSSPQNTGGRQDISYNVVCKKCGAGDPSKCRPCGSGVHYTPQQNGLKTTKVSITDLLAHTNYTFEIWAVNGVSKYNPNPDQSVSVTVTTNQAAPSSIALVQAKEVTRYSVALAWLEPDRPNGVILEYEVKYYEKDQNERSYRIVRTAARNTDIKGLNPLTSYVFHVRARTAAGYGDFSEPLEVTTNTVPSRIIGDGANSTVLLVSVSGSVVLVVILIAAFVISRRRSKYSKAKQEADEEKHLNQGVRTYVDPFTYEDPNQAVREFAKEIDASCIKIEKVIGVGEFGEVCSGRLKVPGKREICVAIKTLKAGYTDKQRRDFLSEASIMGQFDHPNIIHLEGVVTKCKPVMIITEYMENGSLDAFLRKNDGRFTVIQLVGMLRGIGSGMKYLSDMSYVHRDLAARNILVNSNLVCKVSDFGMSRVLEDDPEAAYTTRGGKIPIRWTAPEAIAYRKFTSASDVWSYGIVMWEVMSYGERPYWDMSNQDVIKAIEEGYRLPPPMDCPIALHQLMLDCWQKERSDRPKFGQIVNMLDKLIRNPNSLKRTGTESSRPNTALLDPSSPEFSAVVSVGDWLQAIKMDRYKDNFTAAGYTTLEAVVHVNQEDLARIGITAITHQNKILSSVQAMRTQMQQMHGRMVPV
# Experimental: as §1
# TYK2 = TYK2 (Homo sapiens, UniProt P29597); assay: Kinase panel biochemical assay, TYK2; conditions: single concentration of 1 μM, read-out: percent inhibition of kinase
# Chain of TYK2 (P29597 whole entry): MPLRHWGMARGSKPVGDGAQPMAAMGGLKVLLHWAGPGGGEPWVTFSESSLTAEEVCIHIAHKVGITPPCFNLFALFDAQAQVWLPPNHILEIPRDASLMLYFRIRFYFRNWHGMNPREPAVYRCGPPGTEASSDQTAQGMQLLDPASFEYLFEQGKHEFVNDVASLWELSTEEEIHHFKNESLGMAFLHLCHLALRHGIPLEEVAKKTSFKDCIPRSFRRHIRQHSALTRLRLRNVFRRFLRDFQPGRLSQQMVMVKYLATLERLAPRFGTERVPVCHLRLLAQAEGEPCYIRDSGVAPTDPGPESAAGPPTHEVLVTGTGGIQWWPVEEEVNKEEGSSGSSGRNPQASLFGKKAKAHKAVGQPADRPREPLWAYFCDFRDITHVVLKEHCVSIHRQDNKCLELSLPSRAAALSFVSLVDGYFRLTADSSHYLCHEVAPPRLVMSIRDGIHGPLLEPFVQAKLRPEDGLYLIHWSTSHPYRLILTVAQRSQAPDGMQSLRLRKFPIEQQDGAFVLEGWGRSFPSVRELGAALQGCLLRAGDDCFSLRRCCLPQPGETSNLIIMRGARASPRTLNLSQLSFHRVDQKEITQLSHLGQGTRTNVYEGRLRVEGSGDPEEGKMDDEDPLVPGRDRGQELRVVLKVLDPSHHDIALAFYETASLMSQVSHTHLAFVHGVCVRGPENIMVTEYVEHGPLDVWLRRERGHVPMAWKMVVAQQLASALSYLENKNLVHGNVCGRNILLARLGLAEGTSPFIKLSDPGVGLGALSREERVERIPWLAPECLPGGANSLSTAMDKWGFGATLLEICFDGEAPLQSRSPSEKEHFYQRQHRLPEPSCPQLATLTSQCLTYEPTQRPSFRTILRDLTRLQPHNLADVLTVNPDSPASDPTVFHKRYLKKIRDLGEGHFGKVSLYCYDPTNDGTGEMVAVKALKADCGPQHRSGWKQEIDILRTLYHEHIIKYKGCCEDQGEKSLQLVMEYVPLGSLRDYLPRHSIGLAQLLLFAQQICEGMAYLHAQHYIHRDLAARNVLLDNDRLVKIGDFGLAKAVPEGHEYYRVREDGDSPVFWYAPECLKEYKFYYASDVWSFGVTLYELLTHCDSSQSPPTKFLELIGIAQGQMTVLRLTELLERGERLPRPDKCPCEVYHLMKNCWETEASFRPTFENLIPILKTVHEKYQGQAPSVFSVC
# Experimental: as §1
# FLT4 = FLT4 (Homo sapiens, UniProt P35916); assay: Kinase panel biochemical assay, FLT4; conditions: single concentration of 1 μM, read-out: percent inhibition of kinase
# Experimental: as §1
# GCK [2] = molecular target: T1, GCK; assay: Inhibitory activity against GCK kinase (IC50); format: biochemical
# Experimental: as §2
# KDR = KDR (Homo sapiens, UniProt P35968); assay: Kinase panel biochemical assay, KDR; conditions: single concentration of 1 μM, read-out: percent inhibition of kinase
# Experimental: as §1
smiles,measurement,setting,value
"Cc1ccc(NC(=O)c2cccc(C(F)(F)F)c2)cc1-c1cc2cnc(N)nc2c(=O)[nH]1 [Compound No. 55, N-(3-(2-amino-8-oxo-7,8-dihydropyrido[3,4-d]pyrimidin-6-yl)-4-methylphenyl)-3-(trifluoromethyl)benzamide]",inhibition at 1 µM,RET,≥ 70%
same,GI50,OCI-AML3 (N-Ras Q61L),< 0.5 µM
same,inhibition at 1 µM,PEAK1,≥ 70%
same,inhibition at 1 µM,ZAK,≥ 70%
same,inhibition at 1 µM,FLT1,≥ 70%
same,inhibition at 1 µM,SRMS,≥ 70%
same,inhibition at 1 µM,TXK,≥ 70%
same,inhibition at 1 µM,GCK [1],≥ 70%
same,inhibition at 1 µM,EPHA8,≥ 70%
same,inhibition at 1 µM,EPHA3,≥ 70%
same,inhibition at 1 µM,EPHA5,≥ 70%
same,inhibition at 1 µM,FRK,≥ 70%
same,inhibition at 1 µM,JAK2,≥ 70%
same,inhibition at 1 µM,EPHB2,≥ 70%
same,inhibition at 1 µM,CSK,≥ 70%
same,inhibition at 1 µM,ABL2,≥ 70%
same,inhibition at 1 µM,PDGFRa,≥ 70%
same,inhibition at 1 µM,EPHB4,≥ 70%
same,inhibition at 1 µM,DDR1,≥ 70%
same,inhibition at 1 µM,BMX,≥ 70%
same,inhibition at 1 µM,EPHA6,≥ 70%
same,IC50,ACK1,100 to 1000 nM
same,inhibition at 1 µM,EPHA2,≥ 70%
same,inhibition at 1 µM,EPHA4,≥ 70%
same,inhibition at 1 µM,TYK2,≥ 70%
same,inhibition at 1 µM,FLT4,≥ 70%
same,IC50,GCK [2],1000 to 10000 nM
same,inhibition at 1 µM,KDR,≥ 70%
